Assay results reported in US10710994B2, “Oxadiazole transient receptor potential channel inhibitors” (Genentech, Inc., priority 2018, dated 2020).
Structures can show the parent of a compound that is named as a salt. Where two headings read alike, the source gives them in different places.

Biological target: human TRPA1 channel (Homo sapiens (Human), UniProt O75762)
Test: hTRPA1 CHO Ca2+ FLIPR Tetra assay: block of cinnamaldehyde induced calcium influx
Type: cell-based
Conditions: CHO cells expressing TRPA1, Hill coefficient fixed to 1.5
Summary of the method: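 TRPA1-expressing CHO cells loaded with calcium indicator dye (1 h 37° C, then 15 min room temperature) in HBSS/20 mM HEPES pH 7.4/0.02% BSA. IC50 from fits with fixed Hill coefficient.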

[1] = read-out: hTRPA1 IC50 90 min, 90 minutes incubation with compound before cinnamaldehyde (about EC80)
[2] = read-out: hTRPA1 IC50 10 min, 10 minutes incubation with compound before cinnamaldehyde (about EC80)
[3] = hTRPA1 IC50 90 min, 90 minutes incubation with compound before cinnamaldehyde (about EC80)
[4] = hTRPA1 IC50 10 min, 10 minutes incubation with compound before cinnamaldehyde (about EC80)

human TRPA1 channel, sequence (O75762 whole entry): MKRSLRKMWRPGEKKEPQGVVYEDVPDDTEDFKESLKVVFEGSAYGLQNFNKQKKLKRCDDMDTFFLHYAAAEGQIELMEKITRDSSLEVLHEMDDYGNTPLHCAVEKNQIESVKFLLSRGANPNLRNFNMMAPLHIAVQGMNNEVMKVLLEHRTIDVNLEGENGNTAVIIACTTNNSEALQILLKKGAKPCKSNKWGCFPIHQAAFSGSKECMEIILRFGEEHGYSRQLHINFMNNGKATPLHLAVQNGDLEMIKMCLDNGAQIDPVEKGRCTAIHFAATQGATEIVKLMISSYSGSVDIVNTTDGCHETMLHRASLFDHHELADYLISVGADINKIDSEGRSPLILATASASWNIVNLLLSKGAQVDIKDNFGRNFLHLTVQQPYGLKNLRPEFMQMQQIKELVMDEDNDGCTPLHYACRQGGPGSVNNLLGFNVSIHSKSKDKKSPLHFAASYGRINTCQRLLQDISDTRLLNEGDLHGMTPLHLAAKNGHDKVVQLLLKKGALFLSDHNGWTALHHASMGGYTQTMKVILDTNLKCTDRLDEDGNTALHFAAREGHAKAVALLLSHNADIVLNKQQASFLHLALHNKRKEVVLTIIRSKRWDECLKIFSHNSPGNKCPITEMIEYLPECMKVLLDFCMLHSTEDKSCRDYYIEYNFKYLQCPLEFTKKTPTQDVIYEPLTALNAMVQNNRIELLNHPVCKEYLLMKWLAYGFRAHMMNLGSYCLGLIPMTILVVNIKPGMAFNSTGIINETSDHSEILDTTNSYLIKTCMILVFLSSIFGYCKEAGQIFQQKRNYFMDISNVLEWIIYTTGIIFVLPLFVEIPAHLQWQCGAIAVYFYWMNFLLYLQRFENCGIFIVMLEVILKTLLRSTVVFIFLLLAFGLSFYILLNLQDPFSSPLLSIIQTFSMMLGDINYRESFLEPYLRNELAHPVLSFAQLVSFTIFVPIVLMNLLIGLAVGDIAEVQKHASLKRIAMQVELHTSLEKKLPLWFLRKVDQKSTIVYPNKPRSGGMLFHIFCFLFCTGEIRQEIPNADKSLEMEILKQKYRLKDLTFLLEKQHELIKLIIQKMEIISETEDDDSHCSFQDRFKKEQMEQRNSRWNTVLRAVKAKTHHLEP

| Compound | IC50 [1] [nM] | IC50 [2] [nM] | IC50 [3] [nM] | IC50 [4] [nM] |
| --- | --- | --- | --- | --- |
| Cc1nc(N2CC(CN)C2)n2ncn(Cc3nc([C@@H]4CO[C@@H](c5ccc(Cl)cc5)C4)no3)c(=O)c12 [Example 80, 7-(3-(aminomethyl)azetidin-1-yl)-3-((3-((3R,5R)-5-(4-chlorophenyl)tetrahydro-furan-3-yl)-1,2,4-oxadiazol-5-yl)methyl)-5-methylimidazo[5,1-f] [1,2,4]triazin-4(3H)-one] | 180 |  |  |  |
| Cn1cnc2ncn(Cc3nc([C@@H]4CO[C@@H](c5ccc(C(F)(F)F)cc5)C4)no3)c(=O)c21 [Example 38, 7-methyl-1-((3-((3R,5R)-5-(4-(trifluoromethyl)phenyl)tetrahydrofuran-3-yl)-1,2,4-oxadiazol-5-yl)methyl)-1,7-dihydro-6H-purin-6-one] | 29 | 46.4 |  |  |
| Cc1ccc([C@H]2C[C@H](c3noc(Cn4cnc5ncn(C)c5c4=O)n3)CO2)cc1 [Example 27, 7-methyl-1-((3-((3R,5R)-5-(p-tolyl)tetrahydrofuran-3-yl)-1,2,4-oxadiazol-5-yl)methyl)-1,7-dihydro-6H-purin-6-one] | 5.7 | 16.1 |  |  |
| Nc1nc2ncccc2c(=O)n1Cc1nc([C@@H]2CO[C@@H](c3ccc(Cl)cc3)C2)no1 [Example 62, 2-amino-3-((3-((3R,5R)-5-(4-chlorophenyl)tetrahydrofuran-3-yl)-1,2,4-oxadiazol-5-yl)methyl)pyrido[2,3-d] pyrimidin-4(3H)-one] | 2.7 | 8.29 |  |  |
| Nc1ccc2c(=O)n(Cc3nc([C@@H]4CO[C@@H](c5ccc(Cl)cc5)C4)no3)ncc2n1 [Example 87, 2-amino-6-((3-((3R,5R)-5-(4-chlorophenyl)tetra-hydrofuran-3-yl)-1,2,4-oxadiazol-5-yl)methyl) pyrido[2,3-d]pyridazin-5(6H)-one] | 3.5 | 10.5 |  |  |
| Cn1nnc2ncn(Cc3nc([C@@H]4CO[C@@H](c5ccc(F)cc5)C4)no3)c(=O)c21 [Example 12, 6-((3-((3R,5R)-5-(4-fluorophenyl)tetra-hydrofuran-3-yl)-1,2,4-oxadiazol-5-yl)methyl)-1-methyl-1,6-dihydro-7H-[1,2,3]triazolo[4,5-d]pyrimidin-7-one] | 3.4 | 7.55 |  |  |
| Cn1cnc2ncn(Cc3nc([C@@H]4CO[C@@H](c5cc(F)cc(F)c5)C4)no3)c(=O)c21 [Example 34, 1-((3-((3R,5R)-5-(3,5-difluorophenyl)tetra-hydrofuran-3-yl)-1,2,4-oxadiazol-5-yl)methyl)-7-methyl-1,7-dihydro-6H-purin-6-one] | 28 | 63.5 |  |  |
| Cn1cnc2ncn(Cc3nc([C@@H]4CO[C@@H](c5ccc(C6CC6)cc5)C4)no3)c(=O)c21 [Example 68, 1-((3-((3R,5R)-5-(4-cyclopropylphenyl)tetrahydrofuran-3-yl)-1,2,4-oxadiazol-5-yl)methyl)-7-methyl-1,7-dihydro-6H-purin-6-one] | 27 | 46 |  |  |
| Nc1nc2ncn(Cc3nc([C@@H]4CO[C@@H](c5ccc(F)cc5)C4)no3)c(=O)c2s1 [Example 126, 2-amino-6-((3-((3R,5R)-5-(4-fluorophenyl)tetrahydrofuran-3-yl)-1,2,4-oxadiazol-5-yl)methyl) thiazolo[4,5-d]pyrimidin-7(6H)-one] | 36 | 89.9 |  |  |
| Cn1nnc2cnn(Cc3nc([C@@H]4CO[C@@H](c5ccc(Cl)cc5)C4)no3)c(=O)c21 [Example 140, 5-((3-((3R,5R)-5-(4-chlorophenyl)tetrahydro-furan-3-yl)-1,2,4-oxadiazol-5-yl)methyl)-3-methyl-3,5-dihydro-4H-[1,2,3]triazolo[4,5-d]pyridazin-4-one] | 43 | 80.1 |  |  |
| Cc1ncn2nc(N)n(Cc3nc([C@@H]4CO[C@@H](c5ccc(F)cc5)C4)no3)c(=O)c12 [Example 85, 2-amino-3-((3-((3R,5R)-5-(4-fluorophenyl)tetra-hydrofuran-3-yl)-1,2,4-oxadiazol-5-yl)methyl)-5-methylimidazo[5,1-f] [1,2,4]triazin-4(3H)-one] | 6 | 15.5 |  |  |
| O=C1CCc2c(ncn(Cc3nc([C@@H]4CO[C@@H](c5ccc(Cl)cc5)C4)no3)c2=O)N1 [Example 118, 3-((3-((3R,5R)-5-(4-chlorophenyl)tetrahydro-furan-3-yl)-1,2,4-oxadiazol-5-yl)methyl)-5,8-dihydropyrido[2,3-d] pyrimidine-4,7(3H,6H)-dione] | 47 | 96.4 |  |  |
| Nc1nn2ncc(Cl)c2c(=O)n1Cc1nc([C@@H]2CO[C@@H](c3ccc(F)cc3)C2)no1 [Example 143, 2-amino-5-chloro-3-((3-((3R,5R)-5-(4-fluorophenyl)tetrahydro-furan-3-yl)-1,2,4-oxadiazol-5-yl)methyl)pyrazolo[5,1-f][1,2,4]triazin-4(3H)-one] | 6.6 | 56.9 |  |  |
| Cn1cnc2ncn(Cc3nc([C@@H]4CO[C@@H](c5ccc(OC(F)(F)F)cc5)C4)no3)c(=O)c21 [Example 21, 7-methyl-1-((3-((3R,5R)-5-(4-(trifluoromethoxy)phenyl)tetrahydro-furan-3-yl)-1,2,4-oxadiazol-5-yl)methyl)-1,7-dihydro-6H-purin-6-one] | 67 | 98.5 |  |  |
| Cc1ncn2ncn(Cc3nc([C@@H]4CO[C@@H](c5ccc(Cl)cc5)C4)no3)c(=O)c12 [Example 64, 3-((3-((3R,5R)-5-(4-chlorophenyl)tetrahydro-furan-3-yl)-1,2,4-oxadiazol-5-yl)methyl)-5-methylimidazo[1,5-f] [1,2,4]triazin-4(3H)-one] | 15 | 20.6 |  |  |
| Cc1n[nH]c2ncn(Cc3nc([C@@H]4CO[C@@H](c5ccc(Cl)cc5)C4)no3)c(=O)c12 [Example 117, 5-((3-((3R,5R)-5-(4-chlorophenyl)tetrahydro-furan-3-yl)-1,2,4-oxadiazol-5-yl)methyl)-3-methyl-1,5-dihydro-4H-pyrazolo[3,4-d] pyrimidin-4-one] | 5.9 | 11.3 |  |  |
| Cc1nc2nc(C)n(C)c2c(=O)n1Cc1nc([C@@H]2CO[C@@H](c3ccc(Cl)cc3)C2)no1 [Example 109, 1-((3-((3R,5R)-5-(4-chlorophenyl)tetrahydro-furan-3-yl)-1,2,4-oxadiazol-5-yl)methyl)-2,7,8-trimethyl-1,7-dihydro-6H-purin-6-one] | 62 | 85 |  |  |
| Cc1nc(N2CCNCC2)n2ncn(Cc3nc([C@@H]4CO[C@@H](c5ccc(Cl)cc5)C4)no3)c(=O)c12 (racemic) [Example 91, formic acid; 5-methyl-7-piperazin-1-yl-3-[[3-[rac-(3R,5R)-5-(4-chlorophenyl)tetrahydro-furan-3-yl]-1,2,4-oxadiazol-5-yl]methyl] imidazo[5,1-f][1,2,4]triazin-4-one] |  |  | 330 |  |
| Cc1nc(N2CCOCC2)n2ncn(Cc3nc([C@@H]4CO[C@@H](c5ccc(Cl)cc5)C4)no3)c(=O)c12 (racemic) [Example 101, 5-methyl-7-morpholino-3-[[3-[rac-(3R,5R)-5-(4-chlorophenyl)tetrahydro-furan-3-yl]-1,2,4-oxadiazol-5-yl]methyl]imidazo[5,1-f][1,2,4]triazin-4-one] |  |  | 96 | 123 |
| Cn1cnc2ncn(Cc3nc([C@@H]4CO[C@@H](c5cc(F)c(F)c(F)c5)C4)no3)c(=O)c21 [Example 40, 7-methyl-1-((3-((3R,5R)-5-(3,4,5-trifluorophenyl)tetrahydrofuran-3-yl)-1,2,4-oxadiazol-5-yl)methyl)-1,7-dihydro-6H-purin-6-one] | 11 | 27.6 |  |  |
| Cn1nnc2ccn(Cc3nc([C@@H]4CO[C@@H](c5ccc(F)cc5)C4)no3)c(=O)c21 (racemic) [Example 106, 3-methyl-5-[[3-[rac-(3R,5R)-5-(4-fluorophenyl)tetrahydro-furan-3-yl]-1,2,4-oxadiazol-5-yl]methyl] triazolo[4,5-c]pyridin-4-one] |  |  | 5.6 | 6.9 |
| O=c1c2c(cnn1Cc1nc([C@@H]3CO[C@@H](c4ccc(Cl)cc4)C3)no1)CNCC2 [Example 146, 2-((3-((3R,5R)-5-(4-chlorophenyl)tetrahydro-furan-3-yl)-1,2,4-oxadiazol-5-yl)methyl)-5,6,7,8-tetrahydropyrido[3,4-d] pyridazin-1(2H)-one hydrochloride] | 97 | 2600 |  |  |
| Cn1cnc2ncn(Cc3nc([C@@H]4CO[C@@H](c5ccc(F)cc5)C4)no3)c2c1=O [Example 69, 7-((3-((3R,5R)-5-(4-fluorophenyl)tetrahydro-furan-3-yl)-1,2,4-oxadiazol-5-yl)methyl)-1-methyl-1,7-dihydro-6H-purin-6-one] | 34 | 59.5 |  |  |
